# B1: alkaline phosphatase: Sigma Type VII from bovine (calf) intestine catalogue number P4502 (protein, UniProt P19111 20-506, looked up)
# Intestinal-type alkaline …: LVPVEEEDPAFWNRQAAQALDVAKKLQPIQTAAKNVILFLGDGMGVPTVTATRILKGQMNGKLGPETPLAMDQFPYVALSKTYNVDRQVPDSAGTATAYLCGVKGNYRTIGVSAAARYNQCKTTRGNEVTSVMNRAKKAGKSVGVVTTTRVQHASPAGAYAHTVNRNWYSDADLPADAQMNGCQDIAAQLVNNMDIDVILGGGRKYMFPVGTPDPEYPDDASVNGVRKRKQNLVQAWQAKHQGAQYVWNRTALLQAADDSSVTHLMGLFEPADMKYNVQQDHTKDPTLQEMTEVALRVVSRNPRGFYLFVEGGRIDHGHHDDKAYMALTEAGMFDNAIAKANELTSELDTLILVTADHSHVFSFGGYTLRGTSIFGLAPSKALDSKSYTSILYGNGPGYALGGGSRPDVNDSTSEDPSYQQQAAVPQASETHGGEDVAVFARGPQAHLVHGVEEETFVAHIMAFAGCVEPYTDCNLPAPTTATSIPD
# Assays:
# PK(I) = assay: Detection of ATP by activation of the PFK/PK(I) feedback system (Example B2); assay type: biochemical, E. coli; settings: 0.0001 to 0.5 mM ATP; 340 nm, 30° C.
# Experimental: Cultures of E. coli strain K1-1 were grown on a synthetic medium containing essential nutrients and glycerol as carbon source, until well into their logarithmic phase of growth. The cells were harvested, washed by centrifugation and resuspended in a sonication buffer of 5 mM phosphate, 1 mM EDTA, 2 mM mercaptoethanol pH 7.5 in an amount of approximately 20 mg dry weight per ml. They were then disrupted with an MSE ultrasonic disintegrator for 4 minutes (in 30 seconds bursts while cooled). The resulting crude extract was separated from cell debris by centrifugation. As well as containing pyruvate kinase (I) this extract also contained an interfering isoenzyme with different properties, and also a number of other interfering enzyme activities. It was found, however, that it was possible to remove these contaminants by heating the extract to 55° C. for 20-60, for example 45, minutes. This is the source of pyruvate kinase (I) referred to in the following examples.
# In this example the same basic system described in Example 1 was again used, but instead of the system being used to detect an enzyme capable of giving rise to ATP, the pre-existing ATP in a solution was assayed, using a PK(I) extract which had been prepared by heating at 55° C. for 60 minutes.
# As in the previous example, the assays were carried out in quartz spectrophotometer cuvettes for use with 1.0 ml assay mixtures. […]
# creatine kinase = assay: Creatine phosphate detection with creatine kinase as reagent (Example B7); assay type: biochemical, bovine; settings: for O.D. Units (340 nm) change/minute at 1.5 minutes: CK 0.05 U, 30° C., nil CP gave 0.0011
# Experimental: Mixtures were made up in 10 mM dimethyl-glutamate buffer at pH 6.8 and containing 5 mM MgCl2 and 0.1% in bovine serum albumin as follows:
# In each case the components were combined from stock solutions in a quartz cuvette of 1 ml capacity, mixed and immediately monitored for NADH oxidation by following their optical density at 340 nm and 30° C.
# [1] = tested on: E. coli Type I pyruvate kinase (PK); settings: in the presence of certain amounts of phosphoenolpyruvate; cited from earlier work
# alkaline phosphatase = assay: Detection of alkaline phosphatase by antibody-coated wells and NAD cycle (Example A1); assay type: biochemical, bovine (calf); settings: ten-fold dilutions 1:1000 to 1:10^7; pH 9.3; room temperature
# Experimental: The alkaline phosphatase used in this example is as obtainable from the Sigma Chemical Co (London) Ltd Type VII from bovine (calf) intestine catalogue number P4502 (1981). Antibody is raised against this material by any of the standard procedures. For example 0.5 mg of the alkaline phosphatase suspension is taken and made to 1.0 ml with distilled water and shaken gently. One ml of Freund's complete adjuvant is then added and the mixture homogenised through a connector between two hypodermic syringes back and forth until a stable water-in-oil emulsion is produced. Approximately 1 ml of the emulsion is then injected intramuscularly into each hindquarter of a rabbit. The injections are repeated two and four weeks later with the same amount of alkaline phosphatase but without the added Freund's adjuvant. Blood is then taken from the immunised animal two weeks after the last injection and the immune-serum taken off after clotting has taken place. An IgG fraction of the serum is then obtained by the standard procedure of DEAE Cellulose Chromatography set out in Methods in Immunology by D. H. Cambell, J. S. Garvey, N. E. Cremer and D. H. Sussdorf, 2nd Edition (1970) pages 193-197, published by W. A. Benjamin, Reading Mass. […] The plates are now ready for use. […]
molecule,measurement,setting,value
"Nc1ncnc2c1ncn2[C@@H]1O[C@H](COP(=O)(O)OP(=O)(O)OP(=O)(O)O)[C@@H](O)[C@H]1O [ATP, adenosine 5'-triphosphate]",initiation and rate of NADH oxidation vs ATP concentration,PK(I),The higher concentrations of ATP gave rise to an earlier initiation of observable NADH oxidation and subsequently increased in their rate faster than the lower concentrations
"CN(CC(=O)O)C(=N)NP(=O)(O)O [CP, creatine phosphate]",dependence of the system on creatine phosphate,creatine kinase,dependent on the presence of creatine phosphate and the concentration thereof
same,O.D. Units (340 nm) change/minute at 1.5 minutes,creatine kinase; CP concentration 0.4 mM,0.0070 O.D. Units (340 nm) change/min
same,O.D. Units (340 nm) change/minute at 1.5 minutes,creatine kinase; CP concentration 4.0 mM,0.0118 O.D. Units (340 nm) change/min
"O=C(COP(=O)(O)O)[C@@H](O)[C@H](O)[C@H](O)COP(=O)(O)O [fructose-1,6-diphosphate]",activation of E. coli Type I pyruvate kinase,[1],very potent activator
B1,colour change in wells vs alkaline phosphatase concentration,alkaline phosphatase,change of colour from pale yellow to black much faster than did those which had been exposed to a lower concentration

# — patent US4769321A, “Assay method and reagent therefor” (priority 1979, dated 1988)
